Tests used:
human TRPV1 [1] = target: T1, human TRPV1 (Homo sapiens, UniProt Q8NER1); test: Capsaicin-based assay, Protocol 2 (TRPV1/CHO cells, Fluo-4, FLIPR); assay type: cell-based; conditions: capsaicin 100 nM final, mean ± SEM, number of trials in parentheses, read-out: TRPV1 IC50 Potency, Human Capsaicin CHO (hCAP-CHO)
T1 construct: using primers designed surrounding the complete hTRPV1 open reading frame; expressed in transfected cells; host or cells: CHO-K1 cells stably transfected with pcDNA3.1(-)-hVR1 plasmid
T1 sequence (Q8NER1 whole entry): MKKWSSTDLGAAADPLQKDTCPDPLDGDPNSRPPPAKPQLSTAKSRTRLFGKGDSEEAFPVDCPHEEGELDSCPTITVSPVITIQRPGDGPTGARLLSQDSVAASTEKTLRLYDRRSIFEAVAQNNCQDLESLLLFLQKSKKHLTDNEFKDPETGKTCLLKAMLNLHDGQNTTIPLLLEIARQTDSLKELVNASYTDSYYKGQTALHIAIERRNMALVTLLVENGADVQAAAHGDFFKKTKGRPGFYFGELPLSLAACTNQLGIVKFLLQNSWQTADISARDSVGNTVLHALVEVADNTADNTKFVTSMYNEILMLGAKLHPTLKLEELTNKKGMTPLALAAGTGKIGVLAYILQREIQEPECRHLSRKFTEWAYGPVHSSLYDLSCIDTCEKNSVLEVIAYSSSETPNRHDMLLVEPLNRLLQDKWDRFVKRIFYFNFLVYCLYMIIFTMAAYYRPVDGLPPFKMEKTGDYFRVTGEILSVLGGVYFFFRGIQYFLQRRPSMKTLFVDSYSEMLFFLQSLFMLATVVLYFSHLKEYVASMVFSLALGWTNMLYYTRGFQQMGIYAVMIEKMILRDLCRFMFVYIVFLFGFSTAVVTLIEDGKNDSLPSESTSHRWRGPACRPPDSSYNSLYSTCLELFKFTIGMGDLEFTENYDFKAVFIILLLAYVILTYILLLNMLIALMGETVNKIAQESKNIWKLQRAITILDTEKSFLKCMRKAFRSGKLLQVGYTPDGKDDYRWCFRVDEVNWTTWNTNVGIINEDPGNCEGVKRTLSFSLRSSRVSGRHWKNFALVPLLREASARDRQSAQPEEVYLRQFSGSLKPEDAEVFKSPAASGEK
From the text: The TRPV1/CHO cell line was generated as described below. […] The resulting PCR products were purified from agarose gels using Gel Band Purification Kit (GE Healthcare Bioscience) and were subcloned into pCR-Blunt vector (Invitrogen). The cloned cDNA was fully sequenced using a fluorescent dye-terminator reagent (BigDye Terminator ver3.1 Cycle Sequencing Kit, Applied Biosystems) and ABI Prism 3100 genetic analyzer (Applied Biosystems). The pCR-Blunt vector containing the hTRPV1 cDNA was subjected to restriction digestion with EcoRI. The restriction fragment was subcloned into expression vector pcDNA3.1 (-) (Invitrogen) and named pcDNA3.1 (-)-hVR1 plasmid. The sequence of the cDNA encoding TRPV1 is available at GenBank accession number AJ277028. […] The cells were transfected with the pcDNA3.1 (-)-hVR1 plasmid using FuGENE6 (Roche) according to the manufacturer's protocol. 24 hr after transfection, neomycin-resistant cells were selected using 1 mg/mL G418 (Nacalai Tesque). […] The cells expressing hTRPV1 were cultured in the growth medium supplemented with 1 mg/mL G418. […] Subsequently, the cells were loaded by incubation in 0.1 mL of wash buffer containing Fluo-4 at 3 μM final concentration. After 1 hour, the cells were washed twice with 0.2 mL wash buffer and resuspended in 0.1 mL wash buffer. The plates were then transferred to a Fluorescence Imaging Plate Reader (Molecular Devices). Fluorescence intensity was monitored for 15 seconds to establish a baseline. […] The final concentration of the compound was adjusted to range from 100 μM to 1.5625 μM. […] Data were collected over the entire time course and analyzed using Excel and the curve-fitting formula GraphPad Prism.

human TRPV1 [2] = target: T1, human TRPV1; test: pH-based assay, Protocol 2 (TRPV1/CHO cells, Fura-2 AM, FDSS-3000, pH 5.0-5.1); assay type: cell-based; conditions: H2SO4 agonist, mean ± SEM, number of trials in parentheses, read-out: TRPV1 IC50 Potency, Human pH CHO (hpH-CHO)
From the text: For Protocol 2, a Chinese Hamster Ovary cell line (CHO) that has been engineered to constitutively express human recombinant TRPV1 was used (TRPV1/CHO cells). The TRPV1/CHO cell line was generated as described below.
The resulting PCR products were purified from agarose gels using Gel Band Purification Kit (GE Healthcare Bioscience) and were subcloned into pCR-Blunt vector (Invitrogen). The cloned cDNA was fully sequenced using a fluorescent dye-terminator reagent (BigDye Terminator ver3.1 Cycle Sequencing Kit, Applied Biosystems) and ABI Prism 3100 genetic analyzer (Applied Biosystems). The pCR-Blunt vector containing the hTRPV1 cDNA was subjected to restriction digestion with EcoRI. The restriction fragment was subcloned into expression vector pcDNA3.1 (−) (Invitrogen) and named pcDNA3.1 (−)-hVR1 plasmid. The sequence of the cDNA encoding TRPV1 is available at GenBank accession number AJ277028.
CHO-K1 cells were maintained in growth medium consisting of α-MEM, 10% FBS (Hyclone), and 100 IU/mL of penicillin-100 μg/mL of streptomycin mixed solution (Nacalai Tesque, Japan) at 37° C. in an environment of humidified 95% air and 5% CO2. The cells were transfected with the pcDNA3.1 (−)-hVR1 plasmid using FuGENE6 (Roche) according to the manufacturer's protocol. 24 hr after transfection, neomycin-resistant cells were selected using 1 mg/mL G418 (Nacalai Tesque). After 2 weeks, individual colonies were picked, expanded, and screened for the expression of hTRPV1 in the capsaicin-induced Ca^2+ influx assay (see below) with a FLIPR (Molecular Devices). A clone with the largest Ca^2+ response to capsaicin was selected and re-cloned by the same procedure. The cells expressing hTRPV1 were cultured in the growth medium supplemented with 1 mg/mL G418.
TRPV1/CHO cells were seeded in the 96-well clear-bottom black-wall plate (Nunc) at densities of 1-2×10^4 cells/well and grown in 100 μL of culture medium (alpha-MEM supplemented with 10% FBS, 20 mM HEPES, 1 mg/mL geneticin and 1% antibiotic-antimycotic mixed stock solution) for 1-2 days before the experiment.
Different agonist solutions with sulfuric acid concentrations of from 15 mM to 18 mM (see FIG. 1) were prepared by diluting 1M sulfuric acid with measuring buffer. The different sulfuric acid concentrations in the agonist solutions were selected such that a 1:4 dilution would result in a final sulfuric acid concentration of between 3.0 mM to 3.6 mM, respectively, as indicated in FIG. 1.
The cells were stimulated using 3.0 mM (well number B1-6), 3.1 mM (C1-6), 3.2 mM (D1-6), 3.3 mM (E1-6), 3.4 mM (F1-6), 3.5 mM (G1-6), or 3.6 mM (H1-6) H2SO4 or pH 7.2 measuring buffer without H2SO4 (A1-6) (FIG. 2).
(1) Culture medium was removed using an 8-channel-pipette (Rainin, USA) from the 96-well plate and the wells were refilled with 100 μL of loading buffer (20 mM HEPES, 115 mM NaCl, 5.4 mM KCl, 0.8 mM MgCl2, 1.8 mM CaCl2, 13.8 mM D-glucose, 2.5 mM probenecid, pH 7.4) containing 5 μM Fura-2 AM (Dojin, Japan).
(2) The 96-well plate was incubated at 37° C. for 45 min.
(3) The loading buffer was removed from each well. The cells were subsequently washed twice with 150 μL of measuring buffer (20 mM HEPES, 115 mM NaCl, 5.4 mM KCl, 0.8 mM MgCl2, 5.0 mM CaCl2, 13.8 mM D-glucose, 0.1% BSA, pH 7.4) (no probenecid). The wells were then refilled with 80 μL of measuring buffer.
(4) After an incubation at 4° C. for 15 min, the 96-well plate was transferred to FDSS-3000 (Hamamatsu Photonics, Japan).
(5) The Fura-2 fluorescent intensity was monitored at a wavelength of 340 nm and at 380 nm, respectively, at a rate of 0.5 Hz for a total of 240 seconds.

IC50 (human TRPV1 [1]) [nM]	IC50 (human TRPV1 [2]) [nM]	SMILES
9.8 ± 2.3	0.8 ± 0.1	CC(C)(C)c1ccc(NC(=O)N2CCN(c3ncc([C@H](O)CO)cc3Cl)CC2)cc1 [Compound K6, (S)—N-(4-tert-butylphenyl)-4-(3-chloro-5-(1,2-dihydroxyethyl)pyridin-2-yl)piperazine-1-carboxamide]
153 ± 24.4	57.4 ± 9.1	O=C(Nc1ccc(C(F)(F)F)c(Cl)c1)N1CC=C(c2ncc(CO)cc2Cl)CC1 [Compound L2]
14.2 ± 1.4	5.8	O=C(Nc1ccc(OC(F)(F)F)cc1)N1CCN(c2ncc([C@H](O)CO)cc2Cl)CC1 [Compound L6, (S)-4-(3-chloro-5-(1,2-dihydroxyethyl)pyridin-2-yl)-N-(4-(trifluoromethoxy)phenyl)piperazine-1-carboxamide]
37.5 ± 9	5.7 ± 0.3	O=C(Nc1ccc(OC(F)(F)F)c(Cl)c1)N1CCC(F)(c2ncc([C@H](O)CO)cc2Cl)CC1 [Compound M1]
156 ± 5.6	42 ± 9.1	O=C(Nc1ccc(C(F)(F)F)c(F)c1)N1CC=C(c2ncc(CO)cc2Cl)CC1 [Compound M2]
7 ± 1	3.5 ± 1	O=C(Nc1ccc(C(F)(F)F)cc1)N1CCN(c2ncc([C@H](O)CO)cc2Cl)CC1 [Compound M6, (S)-4-(3-chloro-5-(1,2-dihydroxyethyl)pyridin-2-yl)-N-(4-(trifluoromethyl)phenyl)piperazine-1-carboxamide]
161 ± 16.6	27.3 ± 2.6	CCOc1cc(NC(=O)N2CC=C(c3ncc(CO)cc3Cl)CC2)ccc1C(F)(F)F [Compound N2]
161 ± 41.7	223 ± 14	O=C(Nc1ccc(C(F)(F)F)cn1)N1CC=C(c2ncc([C@@H](O)CO)cc2Cl)CC1 [Compound N3, (R)-4-(3-chloro-5-(1,2-dihydroxyethyl)pyridin-2-yl)-N-(5-(trifluoromethyl)pyridin-2-yl)-5,6-dihydropyridine-1(2H)-carboxamide]
162 ± 29.5	18.8 ± 4	CCCOc1cc(NC(=O)N2CC=C(c3ncc(CO)cc3Cl)CC2)ccc1C(F)(F)F [Compound O2]
173 ± 40.3	44.4	O=C(Nc1ccc(Br)c(C(F)(F)F)c1)N1CC=C(c2ncc([C@H](O)CO)cc2Cl)CC1 [Compound P2]
183 ± 38.1	28.5	O=C(Nc1nc2ccc(Cl)cc2s1)N1CC=C(c2ncc([C@@H](O)CO)cc2Cl)CC1 [Compound P3]
51 ± 16.4	8.1 ± 0.7	O=C(Nc1ccc(S(=O)(=O)C(F)(F)F)cc1)N1CC=C(c2ncc([C@H](O)CO)cc2Cl)CC1 [Compound Q1]
194 ± 27.1	85.9 ± 21.8	O=C(Nc1ccc(OC(F)(F)F)cc1)N1CC=C(c2ncc(CO)cc2Cl)CC1 [Compound Q2]
200 ± 26.8	49.6 ± 3.4	O=C(Nc1ccc(OC(F)(F)F)c(Br)c1)N1CC=C(c2ncc(CO)cc2Cl)CC1 [Compound R2]
205 ± 35.4	31.9 ± 2.5	O=C(Nc1ccc(C(F)(F)F)c(Cl)c1)N1CC=C(c2ncc(CO)cc2Cl)CC1 [Compound S2]
17.7 ± 2	9.2	Cc1cc(NC(=O)N2CC=C(c3ncc([C@H](O)CO)cc3F)CC2)ccc1OC(F)(F)F [Compound S3]
60.3 ± 19	29.7 ± 2.3	O=C(Nc1ccc(Cl)c(C(F)(F)F)c1)N1CCC(F)(c2ncc([C@H](O)CO)cc2Cl)CC1 [Compound T1]

SMILES	IC50 (human TRPV1 [1]) [nM]	IC50 (human TRPV1 [2]) [nM]
O=C(Nc1nc2ccc(F)cc2s1)N1CCC(F)(c2ncc([C@H](O)CO)cc2Cl)CC1 [Compound L1, (S)-4-(3-chloro-5-(1,2-dihydroxyethyl)pyridin-2-yl)-4-fluoro-N-(6-fluorobenzo[d]thiazol-2-yl)piperidine-1-carboxamide]	35.3 ± 12	27.5 ± 3.4
O=C(Nc1ccc(C(F)(F)F)cc1)N1CC=C(c2ncc([C@@H](O)CO)cc2Cl)CC1 [Compound L3]	37.1 ± 14.8	38.3 ± 4
O=C(Nc1ccc(C(F)(F)F)c(Cl)c1)N1CC=C(c2ncc([C@@H](O)CO)cc2Cl)CC1 [Compound M3]	187 ± 43.7	30 ± 2.1

Source: US20090170867A1, “TRPV1 ANTAGONISTS INCLUDING SULFONAMIDE SUBSTITUENT AND USES THEREOF” (Shionogi & Co., Ltd., priority 2007, published 2009)
